Laboratory results reported in US20060069038A1, “Irreversible caspase-3 inhibitors as active site probes” (priority 2003, published 2006).
pIC50: −log10 of the molar value. Read-outs that look alike come from different tables or passages of the source.

Columns and labels:
[1] = molecular target: T1, purified recombinant human caspase-3 (Homo sapiens, UniProt P42574); experiment: Caspase inhibitor titration by [125I]-M808 labeling of purified recombinant human caspase-3 (SDS-PAGE); format: binding
T1 construct: Active site shared between large and small caspase subunit
T1 sequence (P42574 29-175 limits assumed): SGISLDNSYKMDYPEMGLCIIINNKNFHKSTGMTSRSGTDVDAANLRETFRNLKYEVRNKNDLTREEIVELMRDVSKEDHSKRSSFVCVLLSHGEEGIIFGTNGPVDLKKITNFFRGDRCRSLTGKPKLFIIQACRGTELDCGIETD
T1 sequence (P42574 176-277 limits assumed): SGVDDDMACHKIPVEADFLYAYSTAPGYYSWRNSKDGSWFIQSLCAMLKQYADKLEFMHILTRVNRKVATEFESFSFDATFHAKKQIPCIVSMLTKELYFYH
Description: FIG. 3. Potency assessment caspase inhibitors by [^125]-M808 labeling and by DEVD-AMC cleavage activity. A, B-Caspase inhibitor titration and [^125]-M808 labeling with purified recombinant human caspase-3. A-M791 with 5 minute labeling reaction and M791 with 60 minute labeling reaction. In A, the indicated IC50 was defined as the concentration of M791 that reduced the intensity of [^125I]-M808-labeled p17 subunit of caspase-3 by 50%. B-Caspase inhibitor titration and DEVD-AMC cleavage activity with recombinant human caspase-3 that had been incubated with indicated concentration of M791. Under the fluorogenic assay conditions Ki=IC50/2.
(§1) The determination of caspase activity by [^125I]-M808 labeling was performed by pre-incubating purified recombinant human caspase-3 with indicated amounts of caspase inhibitor (M791) or vehicle (DMSO), for 1 hour at 25° C. in ICE buffer III (50 mM Hepes-KOH pH 7.0, 0.1% CHAPS, 10% sucrose, 2 mM EDTA), supplemented with 5 mM DTT. [^125I]-M808 was added to a final concentration of 1.25 μM and incubated for 5 min at 25° C. Active caspases in tissue or cell extracts were labeled by incubating 60-80 μg of lysate with [^125I]-M808 for 15 minutes at 25° C. Labeling was stopped by addition of Laemli buffer (2% SDS; 0.35 M O-mercaptoethanol; 50 mM Tris-Cl pH 6.8; 10% glycerol; 0.05% bromophenol blue) and by heating at 95° C. for 5 minutes. […]

caspase-3 = molecular target: T2, caspase-3 (Homo sapiens, UniProt P42574); experiment: [125I]-M808 labeling of caspase subunits in apoptotic Jurkat cells with caspase inhibitor; format: cell-based; details: increasing inhibitor concentration, FIG. 4
T2 construct: endogenous in cells; host or cells: Jurkat cells, apoptosis induced with camptothecin
T2 sequence (P42574 29-175 limits assumed): T1 sequence (P42574 29-175 limits assumed)
T2 sequence (P42574 176-277 limits assumed): T1 sequence (P42574 176-277 limits assumed)
Description: Jurkat cells (ATCC # TEB-152) were maintained in RPMI1640 supplemented with 10% FBS, 2 mM L-glutamine and antibiotics (penicillin and streptamycin). Apoptosis was induced on cells (1 million cells/ml) that had been starved for 36 hours in CytoSf4 media (Kemp technologies) by addition of camptothecin (Sigma; 3 μg/ml). NT2 cells (ATCC 3813555) were cultured in DMEM+10% FBS+2 mM L-glutamine and antibiotics. Apoptosis induced with camptothecin (5 μg/ml) in culture media.
as §1, with “minutes. Caspase labeling in whole cells was performed as following. NT2 cells were plated in 24-well dishes (50 000 cells/well) in DMEM+10% FBS.” for “minutes.”

pIC50 ([1]; [125I]-M808 added for 5 minutes, read-out: IC50 by [125I]-M808 labeling (50% reduction of labeled p17 subunit))	pIC50 ([1]; incubating with [125I]-M808 for 60 minutes instead of 5, read-out: apparent IC50 by [125I]-M808 labeling)	SMILES	intensity of [125I]-M808-labeled caspase-3 bands (occupancy) (caspase-3)
9.35	9.00	COc1ccc(-c2nc(C)no2)cc1CC(=O)N[C@H](C(=O)N[C@@H](CC(=O)O)C(=O)CSCc1ccccc1)C(C)C [Example M791, (3S)-5-(benzylthio)-3-[(N-{[2-methoxy-5-(3-methyl-1,2,4-oxadiazol-5-yl)phenyl]acetyl}-L-valyl)amino]4-oxopentanoic acid]	–
–	–	CCCCCN(C)CC(=O)[C@H](CC(=O)O)NC(=O)[C@H](CC)n1cc(C(C)(C)C)nc(NCc2nonc2C)c1=O [Example M867, (3S)-3-({(2S)-2-[5-tert-butyl-3-{[(4-methyl-1,2,5-oxadiazol-3-yl)methyl]amino}-2-oxopyrazin-1(2H)-yl]butanoyl}amino)-5-[methyl(pentyl)amino]-4-oxopentanoic acid]	intensity of the radiolabeled bands decreased as the concentration of M867 increased
